Values joined by “and” are separate entries in the source; they are usually repeats but may differ in a detail not shown here. Equal values may be shown once. Read-outs that look alike come from different tables or passages of the source.
Experiments:
COX-1 = biological target: T1, COX-1 (Rattus norvegicus, UniProt Q63921); assay: Rat in vivo COX-1: PGE2 production in mucosal lining of stomach (Griffiths et al.)
T1 construct: as measured in the mucosal lining of the rat stomach; from tissue; host or cells: mucosal lining of the rat stomach, in vivo
T1 sequence (Q63921 27-602): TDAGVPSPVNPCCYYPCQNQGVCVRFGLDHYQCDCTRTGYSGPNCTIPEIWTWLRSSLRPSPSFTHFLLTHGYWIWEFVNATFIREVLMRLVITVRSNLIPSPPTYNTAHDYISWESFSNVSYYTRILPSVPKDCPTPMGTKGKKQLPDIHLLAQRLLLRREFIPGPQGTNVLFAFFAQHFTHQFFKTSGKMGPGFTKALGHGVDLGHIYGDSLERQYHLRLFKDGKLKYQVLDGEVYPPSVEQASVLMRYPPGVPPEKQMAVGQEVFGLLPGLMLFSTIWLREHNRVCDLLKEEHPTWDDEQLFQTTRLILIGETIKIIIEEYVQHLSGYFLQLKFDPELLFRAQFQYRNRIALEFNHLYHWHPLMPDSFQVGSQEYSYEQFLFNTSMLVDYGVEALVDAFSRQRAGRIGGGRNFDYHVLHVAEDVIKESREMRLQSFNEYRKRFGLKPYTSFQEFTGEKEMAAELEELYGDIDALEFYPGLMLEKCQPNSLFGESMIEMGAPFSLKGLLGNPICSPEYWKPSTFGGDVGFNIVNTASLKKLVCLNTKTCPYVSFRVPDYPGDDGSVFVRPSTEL
Procedure: (§1) In vivo cyclo-oxygenase selectivity was evaluated in rats by the method of Griffiths et al., described in Agents & Actions, 32, (1991), 313-320. […] Synovial fluid is secreted by the synovial membrane and is contained in joint cavities. During joint inflammation, COX-2 is induced in joint tissues and prostaglandin products accumulate in the synovial fluid. […] Inhibition of this stomach isozyme results in adverse gastrointestinal side effects.

[1] = biological target: COX-2 (derived from lipopolysaccharide stimulated J774.2 macrophages) (Mus musculus, UniProt Q05769); details: cited from earlier work
Chain of COX-2 (derived from lipopolysaccharide stimulated J774.2 macrophages) (Q05769 18-604): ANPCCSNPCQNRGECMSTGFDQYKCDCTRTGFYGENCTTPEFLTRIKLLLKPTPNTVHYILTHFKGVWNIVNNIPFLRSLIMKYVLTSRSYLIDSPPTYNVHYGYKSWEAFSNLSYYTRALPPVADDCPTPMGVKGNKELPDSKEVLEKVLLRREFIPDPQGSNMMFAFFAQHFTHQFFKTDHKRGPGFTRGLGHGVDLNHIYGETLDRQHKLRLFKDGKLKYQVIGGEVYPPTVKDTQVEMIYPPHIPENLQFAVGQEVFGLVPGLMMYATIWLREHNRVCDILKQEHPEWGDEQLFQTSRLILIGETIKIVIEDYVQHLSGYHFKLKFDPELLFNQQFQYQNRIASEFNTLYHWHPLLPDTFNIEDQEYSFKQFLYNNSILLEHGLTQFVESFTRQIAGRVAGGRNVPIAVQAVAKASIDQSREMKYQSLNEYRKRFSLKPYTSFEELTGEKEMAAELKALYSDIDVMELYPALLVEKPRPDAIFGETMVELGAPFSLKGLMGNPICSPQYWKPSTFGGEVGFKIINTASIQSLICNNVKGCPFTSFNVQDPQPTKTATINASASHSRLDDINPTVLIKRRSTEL

COX-2 [2] = biological target: T2, COX-2 (Canis lupus familiaris, UniProt Q8SPQ9); assay: in vivo; details: for PGE2 Pg/mL/Well: group average; for inhibition at 2 mg/kg / inhibition at 10 mg/kg: dog, po
T2 sequence (Q8SPQ9 18-604): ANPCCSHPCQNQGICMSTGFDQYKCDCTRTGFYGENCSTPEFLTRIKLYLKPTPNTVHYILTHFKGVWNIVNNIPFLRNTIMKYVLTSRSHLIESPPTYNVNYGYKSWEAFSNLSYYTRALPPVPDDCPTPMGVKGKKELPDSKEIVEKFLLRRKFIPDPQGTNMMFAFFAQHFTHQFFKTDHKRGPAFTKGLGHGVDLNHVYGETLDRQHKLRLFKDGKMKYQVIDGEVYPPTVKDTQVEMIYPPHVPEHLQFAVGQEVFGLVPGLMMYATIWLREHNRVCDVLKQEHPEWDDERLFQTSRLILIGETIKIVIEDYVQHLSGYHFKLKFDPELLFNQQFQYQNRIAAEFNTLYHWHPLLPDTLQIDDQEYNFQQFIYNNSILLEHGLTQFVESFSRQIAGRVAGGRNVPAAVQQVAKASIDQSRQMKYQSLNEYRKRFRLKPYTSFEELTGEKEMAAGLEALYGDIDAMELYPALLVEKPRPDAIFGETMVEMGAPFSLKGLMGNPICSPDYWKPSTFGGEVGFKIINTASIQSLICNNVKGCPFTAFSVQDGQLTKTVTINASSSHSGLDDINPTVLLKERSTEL
Procedure: A zero-hour blood sample was collected from all dogs in the study prior to dosing, followed by 1-, 3-, and 6-hour post-dose blood sample collections. […] Test tubes used as controls contained vehicle and were unstimulated by the addition of any agent. A 500 μL sample of blood was added to each of the above-described test tubes, after which they were incubated at 37° C. for one hr in the case of the calcium ionophore-containing test tubes, and overnight in the case of the LPS-containing test tubes. After incubation, 10 μL of EDTA was added to give a final concentration of 0.3%, in order to prevent coagulation of the plasma which sometimes occurs after thawing frozen plasma samples. The incubated samples were centrifuged at 4° C. and the resulting plasma sample of ˜200 μL was collected and stored at −20° C. in polypropylene 96-well plates. In order to determine endpoints for this study, enzyme immunoassay (EIA) kits available from Cayman were used to measure production of TXB2 and PGE2, utilizing the principle of competitive binding of tracer to antibody and endpoint determination by colorimetry.
The data is expressed as treatment group averages in pg/mL of TXB2 and PGE2 produced per sample. Plasma dilution was not factored in said data values.

COX-2 [3] = biological target: COX-2 (Rattus norvegicus, UniProt P35355); assay: in vivo; details: read-out: COX-2 ED50
Chain of COX-2 (Rattus norvegicus, UniProt P35355) (P35355 18-604): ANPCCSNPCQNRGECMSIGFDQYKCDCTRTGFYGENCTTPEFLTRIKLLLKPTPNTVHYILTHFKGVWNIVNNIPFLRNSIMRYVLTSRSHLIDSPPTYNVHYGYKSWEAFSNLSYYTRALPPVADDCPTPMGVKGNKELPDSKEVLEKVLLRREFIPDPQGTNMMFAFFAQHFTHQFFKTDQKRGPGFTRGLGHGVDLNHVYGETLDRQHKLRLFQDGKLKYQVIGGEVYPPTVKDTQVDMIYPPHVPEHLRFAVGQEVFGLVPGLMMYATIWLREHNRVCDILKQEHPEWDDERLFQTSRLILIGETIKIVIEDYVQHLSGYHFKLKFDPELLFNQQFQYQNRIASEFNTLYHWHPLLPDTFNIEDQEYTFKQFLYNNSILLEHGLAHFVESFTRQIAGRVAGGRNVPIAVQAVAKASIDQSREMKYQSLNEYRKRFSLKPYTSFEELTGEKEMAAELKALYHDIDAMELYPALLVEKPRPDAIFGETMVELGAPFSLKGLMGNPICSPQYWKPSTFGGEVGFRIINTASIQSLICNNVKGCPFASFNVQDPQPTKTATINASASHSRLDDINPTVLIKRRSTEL
Procedure: as §1

COX-2 [4] = biological target: T2, COX-2; assay: in vivo; details: for PGE2 Pg/mL/Well: individual dogs; for inhibition at 2 mg/kg / inhibition at 4 mg/kg: dog, po
Procedure: A zero-hour blood sample was collected from all dogs in the study prior to dosing, followed by 2- and 4-hour post-dose blood sample collections. Test tubes were prepared containing 2 μL of lipopolysaccharide (LPS) to give a 10 μg/mL final concentration. Untreated test tubes were used as controls. A 500 μL sample of blood was added to each of the above-described test tubes, after which they were incubated at 37° C. overnight. After incubation […] of EDTA was added to give a final concentration of 0.3%. The incubated samples were centrifuged at 4° C. and the resulting plasma sample of 200 μL was collected and stored at −20° C. in propylene 96-well plates. Enzyme immunoassay (EIA) kits available from Cayman were used to measure production of PGE2, with endpoint determination by colorimetry. Plasma samples were diluted to 1/750 for PGE2.

[5] = inspection of plot of plasma level vs % COX-2 inhibition (Example 3 data)

## CC(C(=O)O)c1ccc2c(c1)[nH]c1ccc(Cl)cc12 (racemic) [Carprofen (rac.), 6-chloro-α-methyl-9H-carbazole-2-acetic acid]
COX-1
  ED50: 6.4 mg/kg
[1]; read-out: IC50 (μM) COX-2, as shown by Battistini et al.
  IC50: 11 µM
[1]; read-out: IC50 (μg/mL) COX-2, n=9, LPS stimulated J774.2 macrophages
  IC50: 11 µM
COX-2 [2]; 2 mg/kg PO capsule, 0-hour (pre-dose)
  PGE2 Pg/mL/Well: 511 Pg/mL/Well
COX-2 [2]; 2 mg/kg PO capsule, 1-hour post-dose
  PGE2 Pg/mL/Well: 33 Pg/mL/Well
COX-2 [2]; 2 mg/kg PO capsule, 3-hour post-dose
  PGE2 Pg/mL/Well: 98 Pg/mL/Well
COX-2 [2]; 2 mg/kg PO capsule, 6-hour post-dose
  PGE2 Pg/mL/Well: 190 Pg/mL/Well
COX-2 [2]; 10 mg/kg PO capsule, 0-hour (pre-dose)
  PGE2 Pg/mL/Well: 336 Pg/mL/Well
COX-2 [2]; 10 mg/kg PO capsule, 1-hour post-dose
  PGE2 Pg/mL/Well: 19 Pg/mL/Well
COX-2 [2]; 10 mg/kg PO capsule, 3-hour post-dose
  PGE2 Pg/mL/Well: 12 Pg/mL/Well
COX-2 [2]; 10 mg/kg PO capsule, 6-hour post-dose
  PGE2 Pg/mL/Well: 12 Pg/mL/Well
COX-2 [2]; read-out: COX-2 activity Percent Inhibition, 2 mg/kg PO capsule, 1-hour, based on zero hour value
  inhibition at 2 mg/kg: 94%
COX-2 [2]; read-out: COX-2 activity Percent Inhibition, 2 mg/kg PO capsule, 3-hour, based on zero hour value
  inhibition at 2 mg/kg: 81%
COX-2 [2]; read-out: COX-2 activity Percent Inhibition, 2 mg/kg PO capsule, 6-hour, based on zero hour value
  inhibition at 2 mg/kg: 63%
COX-2 [2]; read-out: COX-2 activity Percent Inhibition, 10 mg/kg PO capsule, 1-hour, based on zero hour value
  inhibition at 10 mg/kg: 94%
COX-2 [2]; read-out: COX-2 activity Percent Inhibition, 10 mg/kg PO capsule, 3-hour, based on zero hour value
  inhibition at 10 mg/kg: 96%
COX-2 [2]; read-out: COX-2 activity Percent Inhibition, 10 mg/kg PO capsule, 6-hour, based on zero hour value
  inhibition at 10 mg/kg: 96%
COX-2 [3]
  ED50: 0.63 mg/kg
COX-2 [4]; 2 mg/kg PO tablet, 0-hour (pre-dose)
  PGE2 Pg/mL/Well: 293 Pg/mL/Well and 541 Pg/mL/Well and 409 Pg/mL/Well
COX-2 [4]; 4 mg/kg PO tablet, 0-hour (pre-dose)
  PGE2 Pg/mL/Well: 471 Pg/mL/Well and 393 Pg/mL/Well and 622 Pg/mL/Well
COX-2 [4]; 4 mg/kg PO tablet, 2-hour post-dose
  PGE2 Pg/mL/Well: 25 Pg/mL/Well and 21 Pg/mL/Well and 14 Pg/mL/Well
COX-2 [4]; 4 mg/kg PO tablet, 4-hour post-dose
  PGE2 Pg/mL/Well: 20 Pg/mL/Well and 25 Pg/mL/Well and 14 Pg/mL/Well
COX-2 [4]; read-out: COX-2 activity Percent Inhibition, 2 mg/kg PO tablet, 2-hour, based on each dog's zero hour value
  inhibition at 2 mg/kg: 88%
COX-2 [4]; read-out: COX-2 activity Percent Inhibition, 2 mg/kg PO tablet, 4-hour, based on each dog's zero hour value
  inhibition at 2 mg/kg: 77%
COX-2 [4]; read-out: COX-2 activity Percent Inhibition, 4 mg/kg PO tablet, 2-hour, based on each dog's zero hour value
  inhibition at 4 mg/kg: 95%
COX-2 [4]; read-out: COX-2 activity Percent Inhibition, 4 mg/kg PO tablet, 4-hour, based on each dog's zero hour value
  inhibition at 4 mg/kg: 96%
COX-2 [4]; [5]
  plasma carprofen concentration at which 80% COX-2 inhibition occurred: approximately 10 μg/mL
  plasma carprofen concentration at which 90% COX-2 inhibition occurred: approximately 20 μg/mL

Reference: US20030212123A1, “COX-2 selective carprofen for treating pain and inflammation in dogs” (Pfizer Inc., priority 1997, published 2003)
